# According to the NIST ThermoML archive (doi:10.1021/acs.jced.9b00147):
# Values joined by “and” are separate entries in the source; they are usually repeats but may differ in a detail not shown here. Equal entries are not always repeated. Numbers after ± are expanded uncertainties.
# Key:
# [1] = 101.3 kPa, Liquid; for speed of sound: Single path-length method; for mass density: Vibrating tube method
# [2] = xn = mol fraction of the nth substance listed; conditions: 101.3 kPa, Liquid, x2 = 0; for speed of sound: Single path-length method; for mass density: Vibrating tube method
SMILES,speed of sound ([1]; 293.15 K) [m/s],mass density ([1]; 293.15 K) [kg/m3],speed of sound ([1]; 303.15 K) [m/s],mass density ([1]; 303.15 K) [kg/m3],speed of sound ([1]; 313.15 K) [m/s],mass density ([1]; 313.15 K) [kg/m3],speed of sound ([1]; 323.15 K) [m/s],mass density ([1]; 323.15 K),speed of sound ([2]; 293.15 K) [m/s],mass density ([2]; 293.15 K) [kg/m3],speed of sound ([2]; 303.15 K) [m/s],mass density ([2]; 303.15 K) [kg/m3],speed of sound ([2]; 313.15 K) [m/s],mass density ([2]; 313.15 K) [kg/m3],speed of sound ([2]; 323.15 K) [m/s],mass density ([2]; 323.15 K) [kg/m3]
"CC(=O)[O-].OCC[NH2+]CCO [2,2'-azanediylbis(ethanol) acetate]",1884.7 ± 20,1180 ± 6,1828.2 ± 20,1173 ± 6,1788.6 ± 20,1167 ± 6,1756 ± 20,1160 ± 6 kg/m3,,,,,,,,
CC(=O)[O-].[NH3+]CCO [2-hydroxyethylammonium acetate],1812.9 ± 20,1150 ± 6,1781.2 ± 20,1144 ± 6,1754.7 ± 20,1139 ± 6,1730.9 ± 20,1133 ± 6 kg/m3 and 1132 ± 6 kg/m3,,,,,,,,
CCCO [propan-1-ol],1223.4 ± 20,803.6 ± 6,1189.4 ± 20,795.7 ± 6,1155.5 ± 20,787.5 ± 6,1122 ± 20,779.2 ± 6 kg/m3,,,,,,,,
CCCO [propan-1-ol] + CC(=O)[O-].OCC[NH2+]CCO,,,,,,,,,1223.4 ± 20,803.6 ± 6,1189.4 ± 20,795.7 ± 6,1155.5 ± 20,787.5 ± 6,1122 ± 20,779.2 ± 6
CCCO [propan-1-ol] + CC(=O)[O-].[NH3+]CCO,,,,,,,,,1223.4 ± 20,803.6 ± 6,1189.4 ± 20,795.7 ± 6,1155.5 ± 20,787.5 ± 6,1122 ± 20,779.2 ± 6
CC(C)O [propan-2-ol],1174.3 ± 20,791.5 ± 6,1122.4 ± 20,777 ± 6,1087.4 ± 20,768.2 ± 6,1051.6 ± 20,759 ± 6 kg/m3,,,,,,,,
CC(C)O [propan-2-ol] + CC(=O)[O-].OCC[NH2+]CCO,,,,,,,,,1174.3 ± 20,791.5 ± 6,1122.4 ± 20,777 ± 6,1087.4 ± 20,768.2 ± 6,1051.6 ± 20,759 ± 6
CC(C)O [propan-2-ol] + CC(=O)[O-].[NH3+]CCO,,,,,,,,,1174.3 ± 20,791.5 ± 6,1122.4 ± 20,777 ± 6,1087.4 ± 20,768.2 ± 6,1051.6 ± 20,759 ± 6
